Experimental data published in patent US20170001988A1, “PIPERIDINE AND PIPERAZINE DERIVATIVES AND THEIR USE IN TREATING VIRAL INFECTIONS AND CANCER” (THE UNITED STATES OF AMERICA, AS REPRESENTED BY THE …, priority 2013, published 2017).
Where two headings read alike, the source gives them in different places.

What was measured:
in vitro = conditions: human
From the text: (§1) EC50 was generated using the HCV-Luc infection assay and IC50 using the ATPLite assay.
(§2) EC50 was generated using the HCV-Luc infection assay and TC50 using the ATPLite assay.
(§3) The cytotoxicity of the compounds was further evaluated in HepG2 cells and primary human hepatocytes.

Huh7.5.1 cells = assay: in vitro; conditions: human
From the text: as §1, §2, §3

HCV-Luc [1] = assay: HCV-Luc infection assay; type: cell-based; conditions: for EC50: Hepatitis C virus, read-out: EC50
HCV replicon GT 2a = type: cell-based; conditions: 10 μM; luciferase 48 h
HCVpp GT 1b = type: cell-based, HCV; conditions: 10 μM; Huh 7.5.1 cells
HCVsc, genotype 2a = type: cell-based, HCV; conditions: 10 μM; Huh 7.5.1 cells; luciferase 48 h
HCVpp GT 1a = type: cell-based, HCV; conditions: 10 μM; Huh 7.5.1 cells
[2] = test system: HCVcc, genotype 2a, JFH-1 strain; assay: HCVcc assay, extracellular and intracellular viral RNA by quantitative real-time PCR; type: cell-based, HCV; conditions: compound at 10 μM; Huh 7.5.1 cells; 48 h; vs DMSO
Description: Huh 7.5.1 cells were seeded in 12-well plates (10^5 cells/well) and cultured overnight. HCVcc was used to infect the cells with the treatment of compounds at 10 μM. Virus-containing medium was removed after 4 h incubation and compound treatment was added back followed by incubation for additional 48 h. Intracellular and extracellular viral RNA levels were evaluated by quantitative real-time PCR. The results are illustrated in FIG. 1 and are the means of three replicates ±SEM. […] Cyclosporin A at 10 μM was used as positive control.
Cell Culture-derived HCV (HCVcc, genotype 2a, JFH-1 strain) system provides direct evidence of anti-HCV activity of the compounds.
Cell Culture-derived HCV (HCVcc, genotype 2a, JFH-1 strain) system provides direct evidence of anti-HCV activity of the compounds. Determination of both extracellular and intracellular HCV levels can help evaluate whether the compounds interfere early-stage or late-stage infection. […] Cyclosporin A was tested in parallel to serve as control compound targeting early-stage HCV infection. […] At the highest concentration, cyclosporin A caused approximately 4-log fold reduction in intracellular RNA copies, while the extracellular level reduced less than […]. On the contrary, NCGC00345021 led to only about 1-log fold decrease in intracellular RNA copies when causing 3-log fold reduction in extracellular RNA level. Clearly, when the concentration increased, NCGC00345021 led to a more dramatic reduction in extracellular RNA copies.

replicon GT 1a = assay: Transient replicon assay, GT 1a; type: cell-based, HCV; conditions: 10 μM; 48 h; Huh7.5.1 cells
HCV replicon GT 1b = type: cell-based; conditions: 10 μM; luciferase 48 h
[3] = ATPlite assay run in parallel with the combination HCV-Luc assay; type: cell-based; conditions: (S)-CCZ combined with anti-HCV drugs
Description: Combination of ribavirin and peginterferon α (IFN-α) has been the standard of care to treat chronic HCV infection for many years. Direct-acting antivirals, such as telaprevir and daclatasvir, were recently approved for therapy of hepatitis C. The combination of (S)-CCZ with these different classes of anti-HCV drugs is described in this example. HCV-Luc assay in parallel with ATPlite assay was performed in the presence of various concentrations of (S)-CCZ in combination with various concentrations of each drug. Using the MacSynergy II program based on Bliss independence model, three-dimensional surface plots were generated and log volume of synergism was calculated for each combination. The results were also analyzed with the CalcuSyn program, in which the combination indices were calculated.

HCV genotype 2a = type: in vivo, mice
HCV genotype 1b = type: in vivo, mice
HCV-Luc [4] = assay: HCV-Luc assay of (S)-CCZ combinations, MacSynergy II and CalcuSyn analysis; type: cell-based; conditions: for CalcuSyn CI value: (S)-CCZ in combination with the drug named; for antiviral effect of (S)-CCZ with the drug named: combination with (S)-CCZ
Description: Direct-acting antivirals, such as telaprevir and daclatasvir, were recently approved for therapy of hepatitis C. […] Using the MacSynergy II program based on Bliss independence model, three-dimensional surface plots were generated and log volume of synergism was calculated for each combination. The results were also analyzed with the CalcuSyn program, in which the combination indices were calculated.

Compound: NCCOCCOCCOCCOCCN1CCN(C(c2ccccc2)c2ccc(Cl)cc2)CC1 (racemic) [(CH2CH2O)4CH2CH2NH2 (R,S), 14-(4-((4-Chlorophenyl)(phenyl)methyl)piperazin-1-yl)-3,6,9,12-tetraoxatetradecan-1-amine]
- CC50 (in vitro): 12.2 ± 0.8 µM
- CC50 (Huh7.5.1 cells): 12.2 ± 0.8 µM
- EC50 (HCV-Luc [1]; Table 3): 0.004 ± 0.0022 µM
- Selective Index (HCV-Luc [1]; Table 3): 3050
- Selective Index (HCV-Luc [1]; Table 4): 3050

Compound: CN1CCN(C(c2ccccc2)c2ccc(Cl)cc2)CC1 (racemic) [racemic CCZ, 1-((4-Chlorophenyl)(phenyl)methyl)-4-methylpiperazine, reference compound]
- inhibitory effect in replicon GT 2a cell line (HCV replicon GT 2a): did not show much inhibitory effect
- inhibitory activity in HCVpp GT 1b (HCVpp GT 1b): None of racemic, (R) and (S)-CCZ showed any inhibitory activities
- inhibitory activity in the HCVsc infection level (HCVsc, genotype 2a): significant inhibitory activities
- inhibitory activity in HCVpp GT 1a (HCVpp GT 1a): None of racemic, (R) and (S)-CCZ showed any inhibitory activities
- extracellular viral RNA level [2]: reduced
- intracellular viral RNA level [2]: reduced
- CC50 (in vitro; Huh7.5.1 cells): 49.8 ± 17.2 µM
- inhibition in transient replicon GT 1a (replicon GT 1a): no inhibition was observed
- inhibitory effect in replicon GT 1b cell line (HCV replicon GT 1b): did not show much inhibitory effect
- EC50 (HCV-Luc [1]; Table 3): 0.044 ± 0.011 µM

Compound: CN1CCN([C@H](c2ccccc2)c2ccc(Cl)cc2)CC1 [(R)-CCZ, (R)-1-((4-Chlorophenyl)(phenyl)methyl)-4-methylpiperazine]
- inhibitory effect in replicon GT 2a cell line (HCV replicon GT 2a): did not show much inhibitory effect
- inhibitory activity in HCVpp GT 1b (HCVpp GT 1b): None of racemic, (R) and (S)-CCZ showed any inhibitory activities
- inhibitory activity in the HCVsc infection level (HCVsc, genotype 2a): significant inhibitory activities
- inhibitory activity in HCVpp GT 1a (HCVpp GT 1a): None of racemic, (R) and (S)-CCZ showed any inhibitory activities
- extracellular viral RNA level [2]: reduced
- intracellular viral RNA level [2]: reduced
- CC50 (Huh7.5.1 cells): 37.5 ± 4.2 µM
- inhibition in transient replicon GT 1a (replicon GT 1a): no inhibition was observed
- inhibitory effect in replicon GT 1b cell line (HCV replicon GT 1b): did not show much inhibitory effect
- EC50 (HCV-Luc [1]; Table 3): 0.02 ± 0.005 µM

Compound: CN1CCN([C@@H](c2ccccc2)c2ccc(Cl)cc2)CC1 [(S)-CCZ, (S)-1-((4-Chlorophenyl)(phenyl)methyl)-4-methylpiperazine]
- inhibitory effect in replicon GT 2a cell line (HCV replicon GT 2a): did not show much inhibitory effect
- cytotoxicity of the combinations [3]: without significant cytotoxicity
- inhibitory activity in HCVpp GT 1b (HCVpp GT 1b): None of racemic, (R) and (S)-CCZ showed any inhibitory activities
- inhibitory activity in the HCVsc infection level (HCVsc, genotype 2a): significant inhibitory activities
- reduction of HCV titer from pretreatment baseline, genotype 2a (HCV genotype 2a; 50 mg/kg and 10 mg/kg daily, 6-week treatment): 1.5 log
- HCV titers during the treatment period (drug resistance), genotype 2a (HCV genotype 2a; during treatment): continued to decline during the treatment period without rebound
- inhibitory activity in HCVpp GT 1a (HCVpp GT 1a): None of racemic, (R) and (S)-CCZ showed any inhibitory activities
- extracellular viral RNA level [2]: reduced
- intracellular viral RNA level [2]: reduced
- CC50 (Huh7.5.1 cells): 33.4 ± 2.4 µM
- inhibition in transient replicon GT 1a (replicon GT 1a): no inhibition was observed
- inhibitory effect in replicon GT 1b cell line (HCV replicon GT 1b): did not show much inhibitory effect
- EC50 (HCV-Luc [1]; Table 3): 0.024 ± 0.009 µM
- decrease of genotype 1b virus titer (HCV genotype 1b; 2 mg/kg daily): approximately 1 log
- reduction of HCV titer from pretreatment baseline, genotype 1b (HCV genotype 1b; 50 mg/kg and 10 mg/kg daily, 4 weeks of treatment): 2 log
- HCV titers during the treatment period (drug resistance), genotype 1b (HCV genotype 1b; during treatment): continued to decline during the treatment period without rebound

Compound: CC(C)(C)NC(=O)N[C@H](C(=O)N1C[C@H]2[C@@H]([C@H]1C(=O)NC(CC1CCC1)C(=O)C(N)=O)C2(C)C)C(C)(C)C (stereo partly drawn) [Boceprevir]
- CalcuSyn CI value (HCV-Luc [4]): 0.691 ± 0.114

Compound: COC(=O)N[C@H](C(=O)N1CCC[C@H]1c1nc(-c2ccc(-c3ccc(-c4c[nH]c([C@@H]5CCCN5C(=O)[C@@H](NC(=O)OC)C(C)C)n4)cc3)cc2)c[nH]1)C(C)C [Daclataivir]
- CalcuSyn CI value (HCV-Luc [4]): 0.427 ± 0.142

Compound: CCN1CCN([C@@H](c2ccccc2)c2ccc(Cl)cc2)CC1 [Et (S), (S)-1-((4-Chlorophenyl)(phenyl)methyl)-4-ethylpiperazine]
- CC50 (in vitro): 40 ± 1.1 µM
- CC50 (Huh7.5.1 cells): 40 ± 1.1 µM
- EC50 (HCV-Luc [1]; Table 3): 0.02 ± 0.002 µM

Compound: O=[S+]([O-])(c1ccccc1)N1CCC(N(CCc2ccccc2)Cc2ccccc2)CC1 [Phenylsulfonyl, N-Benzyl-N-phenethyl-1-(phenylsulfonyl)piperidin-4-amine]
- CC50 (in vitro): > 100 µM
- EC50 (HCV-Luc [1]; Table 6): > 32.6 µM

Compound: CCCN1CCC(N(CCc2ccccc2)Cc2ccccc2)CC1 [Propyl, N-Benzyl-N-phenethyl-1-propylpiperidin-4-amine]
- CC50 (in vitro): 38.2 µM
- EC50 (HCV-Luc [1]; Table 6): 0.37 µM

Compound: NC(=O)c1ncn([C@@H]2O[C@H](CO)[C@@H](O)[C@H]2O)n1 [Ribavirin]
- CalcuSyn CI value (HCV-Luc [4]): 0.630 ± 0.106
- antiviral effect of (S)-CCZ with the drug named (HCV-Luc [4]): highly synergistic

Compound: CC(C)OC(=O)[C@H](C)N[P@](=O)(OC[C@H]1O[C@@H](n2ccc(=O)[nH]c2=O)[C@](C)(F)[C@@H]1O)Oc1ccccc1 [Sofosbuvir]
- CalcuSyn CI value (HCV-Luc [4]): 0.362 ± 0.075
- antiviral effect of (S)-CCZ with the drug named (HCV-Luc [4]): highly synergistic

Compound: CCC[C@H](NC(=O)[C@@H]1[C@H]2CCC[C@H]2CN1C(=O)[C@@H](NC(=O)[C@@H](NC(=O)c1cnccn1)C1CCCCC1)C(C)(C)C)C(=O)C(=O)NC1CC1 [Telaprevir]
- CalcuSyn CI value (HCV-Luc [4]): 0.426 ± 0.138

Compound: IFN-α
- CalcuSyn CI value (HCV-Luc [4]): 0.609 ± 0.128
- antiviral effect of (S)-CCZ with the drug named (HCV-Luc [4]): highly synergistic
